This assay has as its target T1, OCTN2 (hOCTN2) (Homo sapiens, UniProt O76082, Y211A).
T1 construct: gene SLC22A5; hOCTN2 mutant expressed in Xenopus laevis oocytes
T1 sequence (O76082 1-557 Y211A): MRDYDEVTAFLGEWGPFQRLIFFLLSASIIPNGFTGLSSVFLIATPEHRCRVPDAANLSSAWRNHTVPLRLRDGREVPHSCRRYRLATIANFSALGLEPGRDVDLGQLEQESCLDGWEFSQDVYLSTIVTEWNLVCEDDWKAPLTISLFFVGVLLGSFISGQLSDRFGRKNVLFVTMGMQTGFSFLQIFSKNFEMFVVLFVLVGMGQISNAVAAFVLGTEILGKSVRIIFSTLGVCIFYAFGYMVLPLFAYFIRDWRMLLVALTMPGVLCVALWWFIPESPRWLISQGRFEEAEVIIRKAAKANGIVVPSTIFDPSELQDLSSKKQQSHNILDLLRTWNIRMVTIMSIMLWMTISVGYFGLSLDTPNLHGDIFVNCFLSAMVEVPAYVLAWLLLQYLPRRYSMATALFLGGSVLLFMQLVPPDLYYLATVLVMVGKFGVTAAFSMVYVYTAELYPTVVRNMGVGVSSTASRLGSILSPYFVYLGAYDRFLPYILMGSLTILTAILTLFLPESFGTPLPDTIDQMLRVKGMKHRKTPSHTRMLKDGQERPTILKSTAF
Description: two-electrode voltage clamp in oocytes, apparent KM (increased versus wildtype). In kind it is cell-based. For orientation: Two-electrode voltage clamp is typically applied to oocytes expressing channels or transporters.

This note sets out measurements from PMC12780140, “Structural basis of sodium ion-dependent carnitine transport by OCTN2” (Nature Communications, 2025).

For the molecule `C[N+](C)(C)C[C@H](O)CC(=O)[O-]` [L-carnitine], the “two-electrode voltage clamp in oocytes, apparent KM (increased versus wildtype)” value was “Mutating this residue to an alanine shows a similar increase in carnitine KM as the mutants above (Fig. 2f)”.
